In paper PMC11247486, “Improving the In Vivo Stability of [^52Mn]Mn(II) Complexes with 18-Membered Macrocyclic Chelators for PET Imaging” (Journal of Medicinal Chemistry, 2024):

Legend:
[1] = Transmetalation (dissociation) kinetics of the Mn(II) complexes with Cu2+; type: physicochemical
Description: There is a wide consensus among the coordination chemistry community that kinetic inertness is more important for the safe use of metal complexes for imaging applications than thermodynamic stability.[8],[49],[50] Thus, we conducted a detailed investigation of the transmetalation kinetics of the Mn-PYAN and Mn-CHXPYAN complexes, by following their exchange reactions with Cu^2+ in the pH range of 2.5–4.5 (eq 3). [drawing 3] 3
All reactions were carried out in the presence of a large excess of Cu^2+ in order to guarantee the pseudo-first-order kinetic conditions. The transmetalation of Mn-PYAN in the pH range ∼2.0–4.5 is very fast, and thus the rates of the reactions were measured using the stopped-flow technique. Conversely, the exchange reactions of the Mn-CHXPYAN complex are slow and could be studied by using conventional methods. The transmetalation reactions of Mn-PYAN and Mn-CHXPYAN were monitored by following the formation of the corresponding Cu(II) complexes at 295 nm.
The kd values increase upon increase in [H^+] and are independent of the concentration of Cu^2+ as it was found for Mn-PCTA, Mn-PC3AM, and Mn-bispidine complexes.[49],[51] […] The increase in the kd values with increasing H^+ concentration can be interpreted in terms of the extremely slow spontaneous (k0, eq 4) and the proton-assisted (k*[Mn(HL), eq 6) dissociation of Mn(II) complexes. The saturation behavior of the plots of kd versus [H^+] (Figure 5) is characteristic for the equilibrium formation and the accumulation of the *[Mn(HL)] intermediate characterized by the *KH protonation constant (eq 5). The analysis of the rate constants obtained for Mn-CHXPYAN indicates a second-order dependence of kd on [H^+], which can be explained by the proton-assisted dissociation of the *[Mn(HL)] intermediate (k^H*[Mn(HL)], eq 7). [drawing 4] 4 [drawing 5] 5 [drawing 6] 6 [drawing 7] 7
In the presence of excess of the exchanging ion, the transmetalation can be treated as a pseudo-first-order process, and the rate of reactions can be expressed with eq 8, where kd is a pseudo-first-order rate constant and [MnL]t is the total concentration of the complex. [drawing 8] 8
Through consideration of all the possible pathways, the rate of the transmetalation of Mn-PYAN and Mn-CHXPYAN with Cu^2+ can be expressed by eq 9 [drawing 9] 9 Considering the total concentration of the Mn(II) complex ([MnL]t = [MnL] + [*Mn(HL)], as well as the equation defining the protonation constant for the formation of the *[Mn(HL)] intermediate (eq 5) and eq 8, the pseudo-first-order rate constant can be expressed as follows [drawing 10] 10 where k1 = k*[Mn(HL)] × *KH and k2 = k^H*[Mn(HL)] × *KH. The rate and protonation constants characterizing the transmetalation of Mn-PYAN and Mn-CHXPYAN with Cu^2+ have been calculated by fitting the kd values presented in Figure 5 to eq 10 and the values obtained are compared with the corresponding values of Mn-DOTA, Mn-DO3A, Mn-PCTA, Mn-PC3AM^H, and Mn-bispidine in Table 3.
Rates of the metal exchange reactions of Mn-PYAN and Mn-CHXPYAN with Cu^2+ were measured by spectrophotometry by following the formation of the related Cu(II) complexes at 295 nm with an Applied Photophysics DX-17MV stopped-flow instrument and PerkinElmer Lambda 365 UV–vis spectrophotometer using 1.0 cm cells, respectively. The concentration of Mn-PYAN and Mn-CHXPYAN was 1.0 × 10^–4 M, whereas the concentration of Cu^2+ was 10 and 20 times higher in order to guarantee pseudo-first-order conditions. The temperature was maintained at 25 °C and the ionic strength of the solutions was kept constant with 0.15 M NaCl. The exchange rates were studied in the pH range of ca. 2.0–4.5. To keep the pH values constant, monochloroacetic acid (pH range 2.0–3.3), 1,4-dimethylpiperazine (pH range 3.3–4.1), and N-methylpiperazine (pH range 4.1–4.5) buffers were used (0.01 M). […]

[2] = 1H NMR relaxometry (relaxivity as a function of pH); type: physicochemical; conditions: around neutral pH, 61 MHz and 25 °C
Source text: The studies reported by Branco assumed the formation of a protonated [Mn(HL)]^3+ species for the Mn-PYAN complex characterized by protonation constant log KMnLH = 5.19 (KMnLH = [MnHL]/[MnL] × [H^+]).[42] However, our pH-potentiometric data could be fitted very well without considering the formation of protonated species or hydroxo-complexes. In order to confirm that the equilibrium model used to fit the pH-potentiometric data was correct, we measured the relaxivity (r1p) of aqueous solutions of the complexes as a function of pH (Figure 4). Relaxivity measures the ability of a paramagnetic solute to enhance the longitudinal relaxation rate of solvent water molecules, normalized for a 1 mM concentration of the paramagnetic ion.[45] The r1p values measured around neutral pH values (0.83 and 1.40 mM^–1 s^–1 at 61 MHz and 25 °C for Mn-PYAN and Mn-CHXPYAN, respectively) are typical of complexes that lack one or more water molecules in the inner coordination sphere, the observed relaxivity being the result of the outer-sphere contribution.[46] Relaxivity is fairly constant in the pH range of 6–9 but increases below pH ∼ 6 due to complex dissociation, reaching a relaxivity of 6.00 mM^–1 s^–1 at pH 3, 61 MHz, and 25 °C that is characteristic of the [Mn(H2O)6]^2+ complex.[47] The relaxivity profile matches the speciation diagrams calculated using the equilibrium constants obtained by pH potentiometry very well, which provides support for the equilibrium model used to fit the potentiometric data. It is worth noting that complex dissociation takes place at a lower pH for Mn-CHXPYAN than for Mn-PYAN, as expected, considering their pMn values.
The relaxivity values were calculated from the longitudinal relaxation time of H2O protons (T1) measured at 61 MHz on a Stelar relaxometer connected to a Bruker WP80 NMR electromagnet adapted to variable-field measurements (15–80 MHz proton Larmor frequency). […] The longitudinal relaxation time was measured with the “inversion recovery” method (180°–τ–90°) by using 12 different τ values with a typical 90° pulse width of 10.7 μs, 4 scans. […]

| t1/2 at pH = 7.4 ([1]; dissociation half-life of the Mn(II) complex, 0.15 M NaCl, 25 °C) | SMILES | relaxivity r1p [2] | acid-catalyzed dissociation rate kd ([1]; pH = 5.5, 25 °C) | t1/2 ([1]; pH = 5.5, 25 °C) | k1 lower than that determined for Mn-PYAN ([1]; ratio of k1 values) |
| --- | --- | --- | --- | --- | --- |
| 5.85 h | [Mn+2].c1cc2nc(c1)CNCCNCc1cccc(n1)CNCCNC2 [Mn-PYAN] | 0.83 mM^–1 s^–1 |  |  |  |
|  | [Mn+2].c1cc2nc(c1)CN[C@@H]1CCCC[C@H]1NCc1cccc(n1)CN[C@@H]1CCCC[C@H]1NC2 [Mn-CHXPYAN] | 1.40 mM^–1 s^–1 | 7.9 × 10^–7 s^–1 | 240 h | 3600 times |
